Patent publication US20060229433A1, “Modified antiviral peptides with increased activity and cell membrane affinity” (priority 2003, published 2006)
“And” between values parts separate entries of the source, which are not always exact repeats. Identical values can stand only once.

Tests used:
Assay type in all cases: cell-based
HIV-1 NL 4-3 [1] = assay: HIV-1 infection of C8166 cells (syncytia formation, p24 ELISA) with HIV-1 NL 4-3
Summary of the method: (§1)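 C8166 T-cells were preincubated with peptide for 1 h at 37 °C, then exposed for 1 h to HIV-1 at 1000 TCID50/ml, washed, and cultured with peptide kept present throughout, with medium replaced at day 4. Infection was scored by syncytia formation and by supernatant p24 ELISA, with at least two runs in duplicate.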

HIV-1 NDK = assay: HIV-1 infection of C8166 cells (syncytia formation, p24 ELISA) with HIV-1 NDK; set-up: key to syncitia formed, Day 4 / syncitia formed, Day 5 / syncitia formed, Day 6 / syncitia formed, Day 7: ++, +, (+), (+)− and − represent decreasing numbers of syncitia formed; ++, +, (+), (+)− and − represent decreasing numbers of syncitia formed; ++, +, (+), (+)− and − represent decreasing numbers of syncitia formed; ++, +, (+), (+)− and − represent decreasing numbers of syncitia formed; ++, +, (+), (+)− and − represent decreasing numbers of syncitia formed; conditions: for P 24: P 24 after Day 7
Summary of the method: as §1

HIV-1 NL 4-3 [2] = assay: HIV-1 infection of C8166 cells (syncytia formation, p24 ELISA) with HIV-1 NL 4-3; set-up: key: ++, +, (+), (+)− and − represent decreasing numbers of syncitia formed; ++, +, (+), (+)− and − represent decreasing numbers of syncitia formed; ++, +, (+), (+)− and − represent decreasing numbers of syncitia formed; ++, +, (+), (+)− and − represent decreasing numbers of syncitia formed; ++, +, (+), (+)− and − represent decreasing numbers of syncitia formed
Summary of the method: as §1

[3] = C8166 cells, HIV-1 subtype B NL 4-3, Table 9, two lines = tested twice, 8 days apart

C[C@H](NC(=O)[C@H](CCCNC(=N)N)NC(=O)CNC(=O)[C@@H]1CCCN1C(=O)CN)C(=O)N[C@@H](Cc1ccccc1)C(=O)NCCCC[C@H](NC(=O)[C@H](Cc1ccccc1)NC(=O)[C@H](C)NC(=O)[C@H](CCCNC(=N)N)NC(=O)CNC(=O)[C@@H]1CCCN1C(=O)CN)C(=O)NCCCC[C@H](NC(=O)[C@H](CCCCNC(=O)[C@H](Cc1ccccc1)NC(=O)[C@H](C)NC(=O)[C@H](CCCNC(=N)N)NC(=O)CNC(=O)[C@@H]1CCCN1C(=O)CN)NC(=O)[C@H](Cc1ccccc1)NC(=O)[C@H](C)NC(=O)[C@H](CCCNC(=N)N)NC(=O)CNC(=O)[C@@H]1CCCN1C(=O)CN)C(=O)NCCCC[C@H](NC(=O)[C@H](CCCCNC(=O)[C@H](CCCCNC(=O)[C@H](Cc1ccccc1)NC(=O)[C@H](C)NC(=O)[C@H](CCCNC(=N)N)NC(=O)CNC(=O)[C@@H]1CCCN1C(=O)CN)NC(=O)[C@H](Cc1ccccc1)NC(=O)[C@H](C)NC(=O)[C@H](CCCNC(=N)N)NC(=O)CNC(=O)[C@@H]1CCCN1C(=O)CN)NC(=O)[C@H](CCCCNC(=O)[C@H](Cc1ccccc1)NC(=O)[C@H](C)NC(=O)[C@H](CCCNC(=N)N)NC(=O)CNC(=O)[C@@H]1CCCN1C(=O)CN)NC(=O)[C@H](Cc1ccccc1)NC(=O)[C@H](C)NC(=O)[C@H](CCCNC(=N)N)NC(=O)CNC(=O)[C@@H]1CCCN1C(=O)CN)C(=O)NCCC(=O)O [SPC3, (GPGRAF)8-K4-K2-K-βA-OH, reference compound]
Day 7 syncitia formed (HIV-1 NL 4-3 [1]; 0.005 μM, Table 6): ++/T | Day 7 syncitia formed (HIV-1 NL 4-3 [1]; 0.01 μM, Table 6): ++/T | Day 7 syncitia formed (HIV-1 NL 4-3 [1]; 0.05 μM, Table 6): ++/T | IC50 (HIV-1 NL 4-3 [1]; C8166 cells, HIV-1 subtype B NL 4-3, Table 3): 500 nM | IC50 (HIV-1 NL 4-3 [1]; [3]): 500 nM | IC100 (HIV-1 NL 4-3 [1]; [3]): 5 µM | P 24 (HIV-1 NL 4-3 [1]; Day 4, 5 μM, Table 1): NEG | P 24 (HIV-1 NL 4-3 [1]; Day 4, 5 μM, Table 2): NEG | P 24 (HIV-1 NL 4-3 [1]; Day 7, 0.005 μM, Table 6): 23810 pg/mL | P 24 (HIV-1 NL 4-3 [1]; Day 7, 0.01 μM, Table 6): 23810 pg/mL | P 24 (HIV-1 NL 4-3 [1]; Day 7, 0.05 μM, Table 6): 23810 pg/mL | P 24 (HIV-1 NL 4-3 [1]; Day 7, 0.1 μM, Table 6): 17810 pg/mL and 19850 pg/mL | P 24 (HIV-1 NL 4-3 [1]; Day 7, 0.5 μM, Table 6): 5173 pg/mL and 4840 pg/mL | P 24 (HIV-1 NL 4-3 [1]; Day 7, 2 μM, Table 1): 7589 pg/mL and 14787 pg/mL | P 24 (HIV-1 NL 4-3 [1]; Day 7, 5 μM, Table 1): NEG | P 24 (HIV-1 NL 4-3 [1]; Day 7, 5 μM, Table 2): 288 pg/mL and 342 pg/mL | P 24 (HIV-1 NL 4-3 [1]; Day 7, 5 μM, Table 6): 3 pg/mL | syncitia formed, Day 4 (HIV-1 NDK; 0.005 μM): − | syncitia formed, Day 5 (HIV-1 NDK; 0.005 μM): + | syncitia formed, Day 6 (HIV-1 NDK; 0.005 μM): ++ | syncitia formed, Day 7 (HIV-1 NDK; 0.005 μM): ++/T | P 24 (HIV-1 NDK; 0.005 μM): 23810 pg/mL | syncitia formed, Day 4 (HIV-1 NDK; 0.01 μM): − | syncitia formed, Day 5 (HIV-1 NDK; 0.01 μM): + | syncitia formed, Day 6 (HIV-1 NDK; 0.01 μM): ++ | syncitia formed, Day 7 (HIV-1 NDK; 0.01 μM): ++/T | P 24 (HIV-1 NDK; 0.01 μM): 23810 pg/mL | syncitia formed, Day 4 (HIV-1 NDK; 0.05 μM): − | syncitia formed, Day 5 (HIV-1 NDK; 0.05 μM): + | syncitia formed, Day 6 (HIV-1 NDK; 0.05 μM): ++ | syncitia formed, Day 7 (HIV-1 NDK; 0.05 μM): ++/T | P 24 (HIV-1 NDK; 0.05 μM): 23810 pg/mL | syncitia formed, Day 4 (HIV-1 NDK; 0.1 μM): − | syncitia formed, Day 5 (HIV-1 NDK; 0.1 μM): (+) | syncitia formed, Day 6 (HIV-1 NDK; 0.1 μM): + and ++ | syncitia formed, Day 7 (HIV-1 NDK; 0.1 μM): ++ | P 24 (HIV-1 NDK; 0.1 μM): 18810 pg/mL and 20850 pg/mL | syncitia formed, Day 4 (HIV-1 NDK; 0.5 μM): − | syncitia formed, Day 5 (HIV-1 NDK; 0.5 μM): − | syncitia formed, Day 6 (HIV-1 NDK; 0.5 μM): + | syncitia formed, Day 7 (HIV-1 NDK; 0.5 μM): ++ | P 24 (HIV-1 NDK; 0.5 μM): 15173 pg/mL and 12840 pg/mL | syncitia formed, Day 4 (HIV-1 NDK; 1 μM): − | syncitia formed, Day 5 (HIV-1 NDK; 1 μM): − | syncitia formed, Day 6 (HIV-1 NDK; 1 μM): − | syncitia formed, Day 7 (HIV-1 NDK; 1 μM): (+) | syncitia formed, Day 4 (HIV-1 NDK; 5 μM): − | syncitia formed, Day 5 (HIV-1 NDK; 5 μM): − | syncitia formed, Day 6 (HIV-1 NDK; 5 μM): − | syncitia formed, Day 7 (HIV-1 NDK; 5 μM): − | IC50 (HIV-1 NDK; HIV 1 NDK, Table 10): 600 nM | IC100 (HIV-1 NDK; HIV 1 NDK, Table 10): 5 µM | Day 4 syncitia formed (HIV-1 NL 4-3 [2]; 0.005 μM, Table 6): − | Day 5 syncitia formed (HIV-1 NL 4-3 [2]; 0.005 μM, Table 6): + | Day 6 syncitia formed (HIV-1 NL 4-3 [2]; 0.005 μM, Table 6): ++ | Day 4 syncitia formed (HIV-1 NL 4-3 [2]; 0.01 μM, Table 6): − | Day 5 syncitia formed (HIV-1 NL 4-3 [2]; 0.01 μM, Table 6): + | Day 6 syncitia formed (HIV-1 NL 4-3 [2]; 0.01 μM, Table 6): ++ | Day 4 syncitia formed (HIV-1 NL 4-3 [2]; 0.05 μM, Table 6): − | Day 5 syncitia formed (HIV-1 NL 4-3 [2]; 0.05 μM, Table 6): + | Day 6 syncitia formed (HIV-1 NL 4-3 [2]; 0.05 μM, Table 6): ++ | Day 4 syncitia formed (HIV-1 NL 4-3 [2]; 0.1 μM, Table 6): − | Day 5 syncitia formed (HIV-1 NL 4-3 [2]; 0.1 μM, Table 6): (+) | Day 6 syncitia formed (HIV-1 NL 4-3 [2]; 0.1 μM, Table 6): + and ++ | Day 7 syncitia formed (HIV-1 NL 4-3 [2]; 0.1 μM, Table 6): ++ | Day 4 syncitia formed (HIV-1 NL 4-3 [2]; 0.5 μM, Table 6): − | Day 5 syncitia formed (HIV-1 NL 4-3 [2]; 0.5 μM, Table 6): − | Day 6 syncitia formed (HIV-1 NL 4-3 [2]; 0.5 μM, Table 6): (+) | Day 7 syncitia formed (HIV-1 NL 4-3 [2]; 0.5 μM, Table 6): + | Day 4 syncitia formed (HIV-1 NL 4-3 [2]; 1 μM, Table 6): − | Day 5 syncitia formed (HIV-1 NL 4-3 [2]; 1 μM, Table 6): − | Day 6 syncitia formed (HIV-1 NL 4-3 [2]; 1 μM, Table 6): − | Day 7 syncitia formed (HIV-1 NL 4-3 [2]; 1 μM, Table 6): (+) | Day 4 syncitia formed (HIV-1 NL 4-3 [2]; 2 μM, Table 1): − | Day 5 syncitia formed (HIV-1 NL 4-3 [2]; 2 μM, Table 1): (+) and (+)− | Day 6 syncitia formed (HIV-1 NL 4-3 [2]; 2 μM, Table 1): + | Day 7 syncitia formed (HIV-1 NL 4-3 [2]; 2 μM, Table 1): ++ | Day 4 syncitia formed (HIV-1 NL 4-3 [2]; 5 μM, Table 1): − | Day 5 syncitia formed (HIV-1 NL 4-3 [2]; 5 μM, Table 1): − | Day 6 syncitia formed (HIV-1 NL 4-3 [2]; 5 μM, Table 1): − | Day 7 syncitia formed (HIV-1 NL 4-3 [2]; 5 μM, Table 1): − | Day 4 syncitia formed (HIV-1 NL 4-3 [2]; 5 μM, Table 6): − | Day 5 syncitia formed (HIV-1 NL 4-3 [2]; 5 μM, Table 6): − | Day 6 syncitia formed (HIV-1 NL 4-3 [2]; 5 μM, Table 6): − | Day 7 syncitia formed (HIV-1 NL 4-3 [2]; 5 μM, Table 6): −
